Results published in the supplement of paper PMC10307832.

Legend:
Assay in all cases: relative viability (nuclei count vs DMSO), 5 days (fraction); higher = more cells survive
NCI-H1793 = tested on: NCI-H1793
Procedure, shortened: (§1)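 Relative viability was taken as the ratio of nuclei in treated wells to nuclei in vehicle wells. Lung cancer cell lines in 1536-well plates received compounds by pin tool one day after seeding, either one drug alone or a fixed anchor-drug dose plus five library-drug doses (not always all listed) in √10 steps. Nuclei were counted on 4× images after 5 days of treatment, and values are medians of duplicate plates.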

NCI-H2170 = tested on: NCI-H2170
Procedure, shortened: as §1

NCI-H2405 = tested on: NCI-H2405
Procedure, shortened: as §1

NCI-H2023 = tested on: NCI-H2023
Procedure, shortened: as §1

NCI-H647 = tested on: NCI-H647
Procedure, shortened: as §1

NCI-H1563 = tested on: NCI-H1563
Procedure, shortened: as §1

NCI-H520 = tested on: NCI-H520
Procedure, shortened: as §1

PC-14 = tested on: PC-14
Procedure, shortened: as §1

NCI-H1734 = tested on: NCI-H1734
Procedure, shortened: as §1

COR-L23 = tested on: COR-L23
Procedure, shortened: as §1

NCI-H3122 = tested on: NCI-H3122
Procedure, shortened: as §1

EPLC-272H = tested on: EPLC-272H
Procedure, shortened: as §1

RERF-LC-KJ = tested on: RERF-LC-KJ
Procedure, shortened: as §1

ABC-1 = tested on: ABC-1
Procedure, shortened: as §1

HCC-44 = tested on: HCC-44
Procedure, shortened: as §1

NCI-H1993 = tested on: NCI-H1993
Procedure, shortened: as §1

EKVX = tested on: EKVX
Procedure, shortened: as §1

LOU-NH91 = tested on: LOU-NH91
Procedure, shortened: as §1

NCI-H2347 = tested on: NCI-H2347
Procedure, shortened: as §1

201T = tested on: 201T
Procedure, shortened: as §1

NCI-H2085 = tested on: NCI-H2085
Procedure, shortened: as §1

NCI-H441 = tested on: NCI-H441
Procedure, shortened: as §1

C[C@@H]1CN(CC(=O)Nc2ccc3c(c2)Cc2cccc(-c4cc(=O)cc(N5CCOCC5)o4)c2S3)C[C@H](C)O1 + Cc1nc(NC(=O)N2CCC[C@H]2C(N)=O)sc1-c1ccnc(C(C)(C)C(F)(F)F)c1 [Alpelisib] (partner 2 µM)
relative viability (NCI-H1793; first compound 0.04 µM): 0.717
relative viability (NCI-H1793; first compound 0.1265 µM): 0.614
relative viability (NCI-H1793; first compound 0.4 µM): 0.514
relative viability (NCI-H1793; first compound 4 µM): 0.585
relative viability (NCI-H2170; first compound 0.1265 µM): 0.761
relative viability (NCI-H2170; first compound 0.4 µM): 0.727
relative viability (NCI-H2170; first compound 4 µM): 0.751
relative viability (NCI-H2405; first compound 0.04 µM): 0.899
relative viability (NCI-H2405; first compound 0.1265 µM): 0.818
relative viability (NCI-H2405; first compound 0.4 µM): 0.769
relative viability (NCI-H2405; first compound 4 µM): 0.698
relative viability (NCI-H2023; first compound 0.04 µM): 0.69
relative viability (NCI-H2023; first compound 0.1265 µM): 0.579
relative viability (NCI-H2023; first compound 0.4 µM): 0.407
relative viability (NCI-H2023; first compound 4 µM): 0.473
relative viability (NCI-H647; first compound 0.04 µM): 1.26
relative viability (NCI-H647; first compound 0.1265 µM): 1.08
relative viability (NCI-H647; first compound 0.4 µM): 1.08
relative viability (NCI-H647; first compound 4 µM): 0.766
relative viability (NCI-H1563; first compound 0.04 µM): 0.942
relative viability (NCI-H1563; first compound 0.1265 µM): 0.918
relative viability (NCI-H1563; first compound 0.4 µM): 0.748
relative viability (NCI-H1563; first compound 4 µM): 0.753
relative viability (NCI-H520; first compound 0.04 µM): 0.974
relative viability (NCI-H520; first compound 0.1265 µM): 0.917
relative viability (NCI-H520; first compound 0.4 µM): 0.535
relative viability (NCI-H520; first compound 4 µM): 0.854
relative viability (PC-14; first compound 0.04 µM): 0.961
relative viability (PC-14; first compound 0.1265 µM): 0.986
relative viability (PC-14; first compound 0.4 µM): 0.9
relative viability (PC-14; first compound 4 µM): 0.855
relative viability (NCI-H1734; first compound 0.04 µM): 0.759
relative viability (NCI-H1734; first compound 0.1265 µM): 0.673
relative viability (NCI-H1734; first compound 0.4 µM): 0.567
relative viability (NCI-H1734; first compound 4 µM): 0.746
relative viability (COR-L23; first compound 0.04 µM): 1.02
relative viability (COR-L23; first compound 0.1265 µM): 0.802
relative viability (COR-L23; first compound 0.4 µM): 0.798
relative viability (COR-L23; first compound 4 µM): 0.727
relative viability (NCI-H3122; first compound 0.04 µM): 0.861
relative viability (NCI-H3122; first compound 0.1265 µM): 0.682
relative viability (NCI-H3122; first compound 0.4 µM): 0.629
relative viability (NCI-H3122; first compound 4 µM): 0.699
relative viability (EPLC-272H; first compound 0.04 µM): 0.928
relative viability (EPLC-272H; first compound 0.1265 µM): 0.806
relative viability (EPLC-272H; first compound 0.4 µM): 0.857
relative viability (EPLC-272H; first compound 4 µM): 1.1
relative viability (RERF-LC-KJ; first compound 0.04 µM): 0.869
relative viability (RERF-LC-KJ; first compound 0.1265 µM): 0.764
relative viability (RERF-LC-KJ; first compound 0.4 µM): 0.774
relative viability (RERF-LC-KJ; first compound 4 µM): 0.792
relative viability (ABC-1; first compound 0.1265 µM): 1.05
relative viability (ABC-1; first compound 0.4 µM): 0.872
relative viability (ABC-1; first compound 4 µM): 0.466
relative viability (HCC-44; first compound 0.04 µM): 0.774
relative viability (HCC-44; first compound 0.1265 µM): 0.744
relative viability (HCC-44; first compound 0.4 µM): 0.615
relative viability (HCC-44; first compound 4 µM): 0.582
relative viability (NCI-H1993; first compound 0.04 µM): 0.641
relative viability (NCI-H1993; first compound 0.1265 µM): 0.685
relative viability (NCI-H1993; first compound 0.4 µM): 0.592
relative viability (NCI-H1993; first compound 4 µM): 0.62
relative viability (EKVX; first compound 0.04 µM): 0.737
relative viability (EKVX; first compound 0.1265 µM): 0.818
relative viability (EKVX; first compound 0.4 µM): 0.818
relative viability (EKVX; first compound 4 µM): 0.732
relative viability (LOU-NH91; first compound 0.04 µM): 0.756
relative viability (LOU-NH91; first compound 0.1265 µM): 0.72
relative viability (LOU-NH91; first compound 0.4 µM): 0.692
relative viability (LOU-NH91; first compound 4 µM): 0.689
relative viability (NCI-H2347; first compound 0.04 µM): 0.981
relative viability (NCI-H2347; first compound 0.1265 µM): 1.09
relative viability (NCI-H2347; first compound 0.4 µM): 1.08
relative viability (NCI-H2347; first compound 4 µM): 0.979
relative viability (201T; first compound 0.04 µM): 1.04
relative viability (201T; first compound 0.1265 µM): 1.02
relative viability (201T; first compound 0.4 µM): 0.943
relative viability (201T; first compound 4 µM): 0.95
relative viability (NCI-H2085; first compound 0.04 µM): 0.99
relative viability (NCI-H2085; first compound 0.1265 µM): 0.897
relative viability (NCI-H2085; first compound 0.4 µM): 0.793
relative viability (NCI-H2085; first compound 4 µM): 0.7
relative viability (NCI-H441; first compound 0.04 µM): 0.942
relative viability (NCI-H441; first compound 0.4 µM): 0.675
relative viability (NCI-H441; first compound 4 µM): 0.584

CC(C)Oc1cc(Nc2nc(N[C@@H](C)c3ccc(F)cn3)ncc2Cl)n[nH]1 [AZ23] + C[C@]1(O)C[C@@H](c2nc(-c3ccc4ccc(-c5ccccc5)nc4c3)c3c(N)nccn32)C1 [Linsitinib] (partner 1 µM)
relative viability (NCI-H1793; first compound 0.01 µM): 1.04
relative viability (NCI-H1793; first compound 0.03162 µM): 0.983
relative viability (NCI-H1793; first compound 0.3162 µM): 0.952
relative viability (NCI-H2405; first compound 0.01 µM): 0.976
relative viability (NCI-H2405; first compound 0.03162 µM): 0.902
relative viability (NCI-H2405; first compound 0.3162 µM): 0.873
relative viability (NCI-H2023; first compound 0.03162 µM): 0.666
relative viability (NCI-H2023; first compound 0.3162 µM): 0.731
relative viability (NCI-H647; first compound 0.01 µM): 1.48
relative viability (NCI-H647; first compound 0.03162 µM): 1.17
relative viability (NCI-H647; first compound 0.3162 µM): 1.26
relative viability (NCI-H1563; first compound 0.01 µM): 1.14
relative viability (NCI-H1563; first compound 0.03162 µM): 1.19
relative viability (NCI-H1563; first compound 0.3162 µM): 1.08
relative viability (NCI-H520; first compound 0.01 µM): 1.18
relative viability (NCI-H520; first compound 0.03162 µM): 1.04
relative viability (NCI-H520; first compound 0.3162 µM): 0.921
relative viability (PC-14; first compound 0.01 µM): 0.946
relative viability (PC-14; first compound 0.03162 µM): 1.16
relative viability (PC-14; first compound 0.3162 µM): 1.03
relative viability (NCI-H1734; first compound 0.01 µM): 0.921
relative viability (NCI-H1734; first compound 0.03162 µM): 0.814
relative viability (NCI-H1734; first compound 0.3162 µM): 0.894
relative viability (COR-L23; first compound 0.01 µM): 0.948
relative viability (COR-L23; first compound 0.03162 µM): 1.11
relative viability (COR-L23; first compound 0.3162 µM): 0.878
relative viability (NCI-H3122; first compound 0.01 µM): 1.01
relative viability (NCI-H3122; first compound 0.03162 µM): 1.01
relative viability (NCI-H3122; first compound 0.3162 µM): 1.06
relative viability (EPLC-272H; first compound 0.01 µM): 1.26
relative viability (EPLC-272H; first compound 0.03162 µM): 1.22
relative viability (RERF-LC-KJ; first compound 0.01 µM): 0.833
relative viability (RERF-LC-KJ; first compound 0.03162 µM): 0.992
relative viability (RERF-LC-KJ; first compound 0.3162 µM): 0.987
relative viability (ABC-1; first compound 0.01 µM): 0.573
relative viability (ABC-1; first compound 0.03162 µM): 0.916
relative viability (ABC-1; first compound 0.3162 µM): 0.866
relative viability (HCC-44; first compound 0.01 µM): 0.684
relative viability (HCC-44; first compound 0.03162 µM): 0.74
relative viability (HCC-44; first compound 0.3162 µM): 0.632
relative viability (NCI-H1993; first compound 0.01 µM): 0.801
relative viability (NCI-H1993; first compound 0.3162 µM): 0.724
relative viability (EKVX; first compound 0.01 µM): 1.01
relative viability (EKVX; first compound 0.03162 µM): 1.22
relative viability (EKVX; first compound 0.3162 µM): 0.969
relative viability (LOU-NH91; first compound 0.01 µM): 0.85
relative viability (LOU-NH91; first compound 0.03162 µM): 0.966
relative viability (LOU-NH91; first compound 0.3162 µM): 0.917
relative viability (NCI-H2347; first compound 0.01 µM): 1.03
relative viability (NCI-H2347; first compound 0.03162 µM): 0.993
relative viability (NCI-H2347; first compound 0.3162 µM): 0.926
relative viability (201T; first compound 0.01 µM): 1.01
relative viability (201T; first compound 0.03162 µM): 1.11
relative viability (201T; first compound 0.3162 µM): 0.996
relative viability (NCI-H2085; first compound 0.01 µM): 1.03
relative viability (NCI-H2085; first compound 0.03162 µM): 1.02
relative viability (NCI-H2085; first compound 0.3162 µM): 0.761
relative viability (NCI-H441; first compound 0.01 µM): 0.608
relative viability (NCI-H441; first compound 0.03162 µM): 0.622
relative viability (NCI-H441; first compound 0.3162 µM): 0.591
